Patent US8871681B2, “Herbicidal compositions comprising 4-amino-3-chloro-5-fluoro-6-(4-chloro-2-fluoro-3-methoxyphenyl) pyridine-2-carboxylic acid or a derivative thereof and certain sulfonylureas” (Dow AgroSciences LLC, priority 2012, dated 2014)

Key:
[1] = tested on: VERPE (Veronica persica, bird's-eye speedwell); experiment: Post-emergence foliar-applied weed control in cereal crops, greenhouse (Example III); assay type: in vivo, Veronica persica Poir.; conditions: Table 51, after 20-22 days, 10 gai/ha alone
Description: (§1) Seeds of the desired test plant species were planted in Sun Gro MetroMix® 306 planting mixture, which typically has a pH of 6.0 to 6.8 and an organic matter content of about 30 percent, in plastic pots with a surface area of 103.2 square centimeters (cm^2). When required to ensure good germination and healthy plants, a fungicide treatment and/or other chemical or physical treatment was applied. The plants were grown for 7-36 days in a greenhouse with an approximate 14 hour photoperiod which was maintained at about 18° C. during the day and 17° C. during the night. Nutrients and water were added on a regular basis and supplemental lighting was provided with overhead metal halide 1000-Watt lamps as necessary. The plants were employed for testing when they reached the second or third true leaf stage.
(§2) Treatments consisted of the benzyl ester of 4-amino-3-chloro-5-fluoro-6-(4-chloro-2-fluoro-3-methoxy-phenyl)pyridine-2-carboxylic acid (Compound A), formulated as an SC (suspension concentrate), and a second cereal herbicide alone and in combination.
(§3) Measured aliquot of benzyl ester of 4-amino-3-chloro-5-fluoro-6-(4-chloro-2-fluoro-3-methoxy-phenyl)pyridine-2-carboxylic acid (Compound A) was placed in 25 milliliter (mL) glass vials and diluted in a volume of 1.25% (v/v) Agri-dex crop oil concentrated to obtain stock solutions. Compound requirements are based upon a 12 mL application volume at a rate of 187 liters per hectare (L/ha). Spray solutions of the second cereal herbicide and experimental compound mixtures were prepared by adding the stock solutions to the appropriate amount of dilution solution to form 12 mL spray solution with active ingredients in two- and three-way combinations. Formulated compounds were applied to the plant material with an overhead Mandel track sprayer equipped with an 8002E nozzle calibrated to deliver 187 L/ha over an application area of 0.503 square meters (m^2) at a spray height of 18 inches (46 cm) above average plant canopy. Control plants were sprayed in the same manner with the solvent blank.
(§4) The treated plants and control plants were placed in a greenhouse as described above and watered by sub-irrigation to prevent wash-off of the test compounds. After 20-22 days, the condition of the test plants as compared with that of the control plants was determined visually and scored on a scale of 0 to 100 percent where 0 corresponds to no injury and 100 corresponds to complete kill.
(§5) Colby's equation was used to determine the herbicidal effects expected from the mixtures (Colby, S. R. 1967. Calculation of the synergistic and antagonistic response of herbicide combinations. Weeds 15:20-22.).
(§6) The following equation was used to calculate the expected activity of mixtures containing two active ingredients, A and B: Expected=A+B−(A×B/100)

[2] = tested on: LAMPU (Lamium purpureum, purple deadnettle); experiment: as above; assay type: in vivo, Lamium purpureum (L.); conditions: Table 51, after 20-22 days, 10 gai/ha alone
Description: as §1, §2, §3, §4, §5, §6

[3] = tested on: GALAP (Galium aparine, cleavers); experiment: as above; assay type: in vivo, Galium aparine (L.); conditions: Table 51, after 20-22 days, 10 gai/ha alone
Description: as §1, with “The plants were employed for testing when they reached the second or third true leaf stage.” left out
Measured aliquot of benzyl ester of 4-amino-3-chloro-5-fluoro-6-(4-chloro-2-fluoro-3-methoxy-phenyl)pyridine-2-carboxylic acid (Compound A) was placed in 25 milliliter (mL) glass vials and diluted in a volume of 1.25% (v/v) Agri-dex crop oil concentrated to obtain stock solutions. […]
The treated plants and control plants were placed in a greenhouse as described above and watered by sub-irrigation to prevent wash-off of the test compounds. After 20-22 days, the condition of the test plants as compared with that of the control plants was determined visually and scored on a scale of 0 to 100 percent where 0 corresponds to no injury and 100 corresponds to complete kill. […]

[4] = tested on: IPOHE (Ipomoea hederacea, ivyleaf morningglory); experiment: Postemergence foliar-applied weed control, direct seeded rice, greenhouse (Example I); assay type: in vivo, Ipomoea hederacea Jacq.; conditions: 22 DAA
From the text: Seeds or nutlets of the desired test plant species were planted in a soil matrix prepared by mixing a loam or sandy loam soil (e.g., 28.6 percent silt, 18.8 percent clay, and 52.6 percent sand, with a pH of about 5.8 and an organic matter content of about 1.8 percent) and calcareous grit in an 80 to 20 ratio. The soil matrix was contained in plastic pots with a volume of 1 quart and a surface area of 83.6 square centimeters (cm^2). When required to ensure good germination and healthy plants, a fungicide treatment and/or other chemical or physical treatment was applied. The plants were grown for 8-22 days in a greenhouse with an approximate 14 h photoperiod which was maintained at about 29° C. during the day and 26° C. during the night. Nutrients (Peters Excel® 15-5-15 5-Ca 2-Mg and iron chelate) were applied in the irrigation solution as needed and water was added on a regular basis. Supplemental lighting was provided with overhead metal halide 1000-Watt lamps as necessary. The plants were employed for testing when they reached the first through fourth true leaf stage.
Treatments consisted of the acid or esters of 4-amino-3-chloro-5-fluoro-6-(4-chloro-2-fluoro-3-methoxy-phenyl)pyridine-2-carboxylic acid (Compound A), each formulated as an SC, and various herbicidal components alone and in combination. Forms of compound A were applied on an acid equivalent basis.
Other herbicidal components were applied on an active ingredient basis and included acetolactate synthase (ALS)-inhibiting herbicides (sulfonylurea chemical class) azimsulfuron formulated as Gulliver®, bensulfuron-methyl formulated as Londax® 60DF, cyclosulfamuron (technical material), ethoxysulfuron formulated as Sunrice® 15 WDG, flazasulfuron formulated as Katana®, flucetosulfuron formulated as Sukedachi® 1KG G, foramsulfuron formulated as Option®, imazosulfuron formulated as Brazzos® WG, iodosulfuron-methyl-sodium formulated as Hussar®, metsulfuron-methyl formulated as Lorate®, nicosulfuron formulated as Accent®, orthosulfamuron formulated as Strada® WG, primisulfuron-methyl (technical material), propyrisulfuron formulated as Zeta One®, rimsulfuron formulated as Matrix® WG, sulfometuron-methyl formulated as Oust®, and trifloxysulfuron-sodium formulated as Monument® 75WG.
(§7) Treatment requirements were calculated based upon the rates being tested, the concentration of active ingredient or acid equivalent in the formulation, and a 12 mL application volume at a rate of 187 L/ha.
For treatments comprised of formulated compounds, measured amounts of compounds were placed individually in 25 mL glass vials and diluted in a volume of 1.25% (v/v) Agri-Dex® crop oil concentrated to obtain 12× stock solutions. […] Application solutions were prepared by adding an appropriate amount of each stock solution (e.g., 1 mL) and diluted to the appropriate final concentrations with the addition of 10 mL of an aqueous mixture of 1.25% (v/v) crop oil concentrate so that the final spray solutions contained 1.25+/−0.05% (v/v) Agrcrop oil concentrate.
For treatments comprised of formulated and technical compounds, weighed amounts of the technical materials were placed individually in 25 mL glass vials and dissolved in a volume of 97:3 v/v acetone/DMSO to obtain 12× stock solutions, and measured amounts of the formulated compounds were placed individually in 25 mL glass vials and diluted in a volume of 1.25% (v/v) crop oil concentrate to obtain 12× stock solutions. […] Application solutions were prepared by adding an appropriate amount of each stock solution (e.g., 1 mL) and diluted to the appropriate final concentrations with the addition of an appropriate amount of an aqueous mixture of 1.5% (v/v) crop oil concentrate so that the final spray solutions contained 1.25% (v/v) crop oil concentrate. […]

[5] = tested on: SETFA (Setaria faberi, giant foxtail); experiment: Pre-emergence soil-applied weed control, greenhouse (Example V); assay type: in vivo, Setaria faberi Herrm.; conditions: Table 59 (pre-emergence), 25 gai/ha alone
From the text: Seeds or nutlets of the desired test plant species were planted in a soil matrix prepared by mixing a loam soil (32 percent silt, 23 percent clay, and 45 percent sand, with a pH of about 6.5 and an organic matter content of about 1.9 percent) and calcareous grit in an 80 to 20 ratio. The soil matrix was contained in plastic pots with a volume of 1 quart and a surface area of 83.6 square centimeters (cm^2).
Treatments consisted of the benzyl ester of 4-amino-3-chloro-5-fluoro-6-(4-chloro-2-fluoro-3-methoxy-phenyl)pyridine-2-carboxylic acid (compound A) formulated as an SC (suspension concentrate) and various herbicidal components alone and in combination. Forms of compound A were applied on an acid equivalent basis.
Other herbicidal components were applied on an acid equivalent or active ingredient basis and included the acetolactate synthase (ALS)-inhibiting herbicide, flazasulfuron, formulated as Katana®.
as §7
For treatments comprised of formulated compounds, measured amounts of compounds were placed individually in 25 mL glass vials and diluted in a volume of 1.25% (v/v) Agri-Dex® crop oil concentrate (COC) to obtain 12× stock solutions. […] Application solutions were prepared by adding an appropriate amount of each stock solution (e.g., 1 mL) and diluted to the appropriate final concentrations with the addition of 10 mL of an aqueous mixture of 1.25% (v/v) COC so that the final spray solutions contained 1.25% (v/v) COC. […]
The treated and control pots were placed in a greenhouse and top watered as needed. […] After approximately 4 weeks, the condition of the test plants as compared with that of the untreated plants was determined visually and scored on a scale of 0 to 100 percent where 0 corresponds to no injury or growth inhibition and 100 corresponds to complete kill. […]

[6] = tested on: LEFCH (Leptochloa chinensis, Chinese sprangletop); experiment: Postemergence foliar-applied weed control, direct seeded rice, greenhouse (Example I); assay type: in vivo, Leptochloa chinensis (L.) Nees; conditions: 22 DAA
Method in brief: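 Greenhouse-grown plants in loam/sandy loam–grit soil (14 h photoperiod, ~29/26 °C) were sprayed postemergence at the first to fourth true leaf stage. Compound A (acid equivalent basis) and ALS-inhibiting sulfonylureas (active ingredient basis) were applied alone and in combination in 1.25% (v/v) crop oil concentrate at 187 L/ha by track sprayer; controls received solvent blank.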

[7] = tested on: CASOB (Cassia obtusifolia, sicklepod); experiment: Post-emergence herbicidal activity of mixtures in forage crops, greenhouse (Example IV); assay type: in vivo, Cassia obtusifolia L.; conditions: Table 58 (forage); foliar-applied; after approximately 21 days; 1.1 gai/ha alone
Description: as §1, with “Seeds or root cuttings” for “Seeds”, “126.6” for “103.2”, “14-60” for “7-36”, “approximately 28°” for “about 18°”, “24°” for “17°”, “BBCH13 to BBCH23” for “second or third true”
(§8) Treatments consisted of the benzyl ester of 4-amino-3-chloro-5-fluoro-6-(4-chloro-2-fluoro-3-methoxy-phenyl)pyridine-2-carboxylic acid (Compound A), formulated as a SC, and a second herbicide alone and in combination.
(§9) A measured aliquot of Compound A was placed in 25 milliliter (mL) glass vial and diluted in a volume of 1.25% (v/v) Agri-dex crop oil concentrated to obtain stock solutions. Compound requirements are based upon a 12 mL application volume at a rate of 187 liters per hectare (L/ha). Spray solutions of the second cereal herbicide and experimental compound mixtures were prepared by adding the stock solutions to the appropriate amount of dilution solution to form 12 mL spray solution with active ingredients in two- and three-way combinations. […]
(§10) The treated plants and control plants were placed in a greenhouse as described above and watered by sub-irrigation to prevent wash-off of the test compounds. After approximately 21 days, the condition of the test plants, as compared with that of the control plants, was determined visually and scored on a scale of 0 to 100 percent where 0 corresponds to no injury and 100 corresponds to complete kill. […]

[8] = tested on: SIDSP (Sida spinosa, prickly sida); experiment: as above; assay type: in vivo, Sida spinosa L.; conditions: Table 58 (forage); foliar-applied; after approximately 21 days; 1.1 gai/ha alone
Description: as §1, with “Seeds or root cuttings” for “Seeds”, “126.6” for “103.2”, “14-60” for “7-36”, “approximately 28°” for “about 18°”, “24°” for “17°”, “BBCH13 to BBCH23” for “second or third true”
as §8, §9, §10

[9] = tested on: POROL (Portulaca oleracea, portulaca); experiment: as above; assay type: in vivo, Portulaca oleracea L.; conditions: Table 58 (forage); foliar-applied; after approximately 21 days; 1.1 gai/ha alone
Description: as §1, with “Seeds or root cuttings” for “Seeds”, “126.6” for “103.2”, “14-60” for “7-36”, “approximately 28°” for “about 18°”, “24°” for “17°”, “BBCH13 to BBCH23” for “second or third true”
as §8, §9, §10

COc1cc(OC)nc(NC(=O)NS(=O)(=O)N(C)S(C)(=O)=O)n1 [Amidosulfuron]
Weed Control VERPE Obs [1]: 0%
Weed Control LAMPU Obs [2]: 0%
Weed Control GALAP Obs [3]: 48%

COc1cc(OC)nc(NC(=O)NS(=O)(=O)c2ncccc2C(F)(F)F)n1 [Flazasulfuron, N-[[(4,6-dimethoxy-2-pyrimidinyl)amino]carbonyl]-3-(trifluoromethyl)-2-pyridinesulfonamide, reference compound]
Visual Weed Control Obs ([4]; 50 gai/ha): 50%
Visual Weed Control (%) Obs ([4]; 100 gai/ha): 50%
Visual Weed Control Obs ([4]; 100 gai/ha): 50%
Visual Weed Control (%) - 27 DAA SETFA Obs [5]: 62%
Visual Weed Control Obs ([6]; 25 gai/ha): 0%
Visual Weed Control Obs ([6]; 50 gai/ha): 10%

COC(=O)c1ccccc1S(=O)(=O)NC(=O)Nc1nc(C)nc(OC)n1 [Metsulfuron ME]
Weed Control CASOB Obs [7]: 8%
Weed Control SIDSP Obs [8]: 52%
Weed Control POROL Obs [9]: 80%
